Each structure is given as a SMILES string.

The assay relates to γ-secretase. In words: Cellular γ-secretase assay (inhibition of Aβ42 secretion, AlphaLisa). Format: cell-based. Conditions: human neuroglioma H4 cells overexpressing human APP695 Swedish double mutation, 24 hr compound incubation. On the procedure:
Cellular γ-Secretase Assay
Human neuroglioma H4 cells overexpressing human APP695 with the Swedish double mutation (K595N/M596L) were plated at 30,000 cells/well/100 μl in 96-well plates in IMDM media containing 10% FCS, 0.2 mg/l Hygromycin B and incubated at 37° C., 5% CO2.
3-4 hr post plating, compounds are a diluted in media and 50 μl is added as 1.5-fold concentrate to achieve the final concentration. Compound incubation is performed for 24 hr. Final doses typically range from 4 μm down to 0.0013 μm in half-log steps resulting in a eight point dose response curve.
Appropriate controls using vehicle only and reference compound were applied to this assay. The final concentration of Me2SO was 0.4%.
After incubation at 37° C., 5% CO2, the supernatant was subjected to quantification of secreted Aβ42 by the means of an AlphaLisa assay kit (Human Amyloid beta 1-42 Kit: Cat # AL203C, Perkin Elmer). 20 μl of the cell culture supernatant was transferred to an assay plate. Then 10 μl of a mixture of the AlphaLisa coupled capture antibody and the biotinylated detection antibody was added and incubated for 3 hours at room temperature while softly shaking the assay plate. After a further addition of 20 μl of the Donor beads the assay plate was incubated for 30 min at room temperature and constant shaking without exposure to direct light. The assay plate was then read on a Paradigm AlphaLisa Reader using the build-in program with excitation at 680 nm and emission at […].
The measured signals were then used to calculate IC50 values for inhibition of Aβ42 secretion by nonlinear regression fit analysis using XLfit 5.3 software (IDBS).
On the technique in general: Alpha assays give light when donor and acceptor beads are brought close together.
With `COc1cc(Nc2nc3n(n2)CCCN3c2cc(F)cc(F)c2)ccc1-n1cnc(C)n1` [Example 41, 4-(3,5-difluorophenyl)-N-[3-methoxy-4-(3-methyl-1,2,4-triazol-1-yl)phenyl]-6,7-dihydro-5H-[1,2,4]triazolo[1,5-a]pyrimidin-2-amine], the EC50 – broadly, the concentration that produces a half-maximal response – was 14.2 nM.

Compound `N#Cc1cc(Nc2nc3n(n2)CCCN3c2ccc(F)c(F)c2)ccc1-n1cnc(C(F)F)c1` [Example 26, 2[4-(difluoromethyl)imidazol-1-yl]-5-[[4-(3,4-difluorophenyl)-6,7-dihydro-5H-[1,2,4]triazolo[1,5-a]pyrimidin-2-yl]amino]benzonitrile] displayed an EC50 of 23.8 nM.

As to `Cc1ncc(-c2ccc(Nc3nc4n(n3)CCCN4c3ccc(F)c(F)c3)cc2C#N)o1` [Example 27, 5-[[4-(3,4-difluorophenyl)-6,7-dihydro-5H-[1,2,4]triazolo[1,5-a]pyrimidin-2-yl]amino]-2-(2-methyloxazol-5-yl)benzonitrile], the EC50 turned out to be 20.2 nM. This EC50 and that of the compound before are within 1.5-fold of each other.

Turning to `COc1cc(Nc2nc3n(n2)CCCN3c2ccc(F)c(F)c2F)ccc1-c1cnc(C)o1` [Example 15, N-[3-methoxy-4-(2-methyloxazol-5-yl)phenyl]-4-(2,3,4-trifluorophenyl)-6,7-dihydro-5H-[1,2,4]triazolo[1,5-a]pyrimidin-2-amine], the EC50 amounted to 14.4 nM. This EC50 and that of the compound before are within 1.5-fold of each other.

For `N#Cc1cc(Nc2nc3n(n2)CCCN3c2ccc(F)c(F)c2)ccc1-n1cnc(Cl)c1` [Example 24, 2-(4-chloroimidazol-1-yl)-5-[[4-(3,4-difluorophenyl)-6,7-dihydro-5H-[1,2,4]triazolo[1,5-a]pyrimidin-2-yl]amino]benzonitrile], the concentration giving a half-maximal response (EC50) was found to be 9 nM. This EC50 lies about 1.6-fold lower than the previous one.

`COc1cc(Nc2nc3n(n2)CCCCN3c2ccc(F)c(F)c2)ccc1-n1cnc(C)n1` [Example 8, 4-(3,4-difluorophenyl)-N-[3-methoxy-4-(3-methyl-1,2,4-triazol-1-yl)phenyl]-5,6,7,8-tetrahydro-[1,2,4]triazolo[1,5-a][1,3]diazepin-2-amine] returned an EC50 of 35.8 nM.

`COc1cc(Nc2nc3n(n2)CCCN3c2ccccc2)ccc1-n1cnc(C)n1` [Example 48, N-[3-methoxy-4-(3-methyl-1,2,4-triazol-1-yl)phenyl]-4-phenyl-6,7-dihydro-5H-[1,2,4]triazolo[1,5-a]pyrimidin-2-amine]: the EC50 was found to be 94.7 nM.

The compound `COc1cc(Nc2nc3n(n2)CCCN3c2ccc(F)c(F)c2)ccc1-n1cnc(Cl)c1` [Example 6, N-[4-(4-chloroimidazol-1-yl)-3-methoxy-phenyl]-4-(3,4-difluorophenyl)-6,7-dihydro-5H-[1,2,4]triazolo[1,5-a]pyrimidin-2-amine] registered an EC50 of 8.3 nM.

`COc1cc(Nc2nc3n(n2)CCCN3c2ccc(F)cc2)cnc1-n1cnc(Cl)c1` [Example 38, N-[6-(4-chloroimidazol-1-yl)-5-methoxy-3-pyridyl]-4-(4-fluorophenyl)-6,7-dihydro-5H-[1,2,4]triazolo[1,5-a]pyrimidin-2-amine] displayed an EC50 of 13.8 nM.

Take `COc1cc(Nc2nc3n(n2)CCN3c2ccc(F)c(F)c2)ccc1-n1cnc(Cl)c1` [Example 46, N-[4-(4-chloroimidazol-1-yl)-3-methoxy-phenyl]-4-(3,4-difluorophenyl)-5,6-dihydroimidazo[1,2-b][1,2,4]triazol-2-amine]: the EC50 was 40.4 nM. This EC50 is about 2.9-fold higher than that of the compound before.

`Cc1ncnn1-c1ccc(Nc2nc3n(n2)CCCN3c2ccc(F)c(F)c2)cc1F` [Example 13, 4-(3,4-difluorophenyl)-N-[3-fluoro-4-(5-methyl-1,2,4-triazol-1-yl)phenyl]-6,7-dihydro-5H-[1,2,4]triazolo[1,5-a]pyrimidin-2-amine]: the EC50 was 24.8 nM.

In turn, `Cc1ncc(-c2ccc(Nc3nc4n(n3)CCCN4c3ccc(F)c(F)c3)cc2F)o1` [Example 19, 4-(3,4-difluorophenyl)-N-[3-fluoro-4-(2-methyloxazol-5-yl)phenyl]-6,7-dihydro-5H-[1,2,4]triazolo[1,5-a]pyrimidin-2-amine] had an EC50 of 20.4 nM.

`Fc1ccc(N2CCCn3nc(Nc4ccc(-n5cnc(Cl)c5)c(F)c4)nc32)cc1` [Example 36, N-[4-(4-chloroimidazol-1-yl)-3-fluoro-phenyl]-4-(4-fluorophenyl)-6,7-dihydro-5H-[1,2,4]triazolo[1,5-a]pyrimidin-2-amine] came in with an EC50 of 39.9 nM.

On to `Fc1ccc(N2CCCn3nc(Nc4ccc(-n5cnc(Cl)c5)cc4)nc32)cc1F` [Example 23, N-[4-(4-chloroimidazol-1-yl)phenyl]-4-(3,4-difluorophenyl)-6,7-dihydro-5H-[1,2,4]triazolo[1,5-a]pyrimidin-2-amine], for which the EC50 amounted to 31.2 nM.

`COc1cc(Nc2nc3n(n2)CCCN3c2ccc(F)cc2)ccc1-n1cnc(Cl)c1` [Example 34, N-[4-(4-chloroimidazol-1-yl)-3-methoxy-phenyl]-4-(4-fluorophenyl)-6,7-dihydro-5H-[1,2,4]triazolo[1,5-a]pyrimidin-2-amine]: a half-maximal response (EC50) required 10 nM. This EC50 lies about 3.1-fold lower than the previous one.

Compound `Cc1ncn(-c2ccc(Nc3nc4n(n3)CCCN4c3ccc(F)c(F)c3)cc2OC(F)F)n1` [Example 1, N-[3-(difluoromethoxy)-4-(3-methyl-1,2,4-triazol-1-yl)phenyl]-4-(3,4-difluorophenyl)-6,7-dihydro-5H-[1,2,4]triazolo[1,5-a]pyrimidin-2-amine] gave a concentration giving a half-maximal response (EC50) of 16.6 nM.

As to `COc1cc(Nc2nc3n(n2)CCCN3c2ccc(F)c(F)c2)ccc1-c1cc(C)n[nH]1` [Example 25, 4-(3,4-difluorophenyl)-N-[3-methoxy-4-(3-methyl-1H-pyrazol-5-yl)phenyl]-6,7-dihydro-5H-[1,2,4]triazolo[1,5-a]pyrimidin-2-amine], the EC50 was determined as 58.5 nM.

For the compound `COc1cc(Nc2nc3n(n2)CCN3c2ccc(C(F)(F)F)cc2)ccc1-n1cnc(Cl)c1` [Example 44, N-[4-(4-chloroimidazol-1-yl)-3-methoxy-phenyl]-4-[4-(trifluoromethyl)phenyl]-5,6-dihydroimidazo[1,2-b][1,2,4]triazol-2-amine], a half-maximal effect (EC50) was put at 65.4 nM. The EC50 values of the last two compounds are within 1.5-fold of each other.

The compound `COc1cc(Nc2nc3n(n2)CCCN3c2ccc(F)c(F)c2)ccc1-n1cnc(C(F)(F)F)c1` [Example 3, 4-(3,4-difluorophenyl)-N-[3-methoxy-4-[4-(trifluoromethyl)imidazol-1-yl]phenyl]-6,7-dihydro-5H-[1,2,4]triazolo[1,5-a]pyrimidin-2-amine] registered an EC50 of 37 nM.

For the compound `COc1cc(Nc2nc3n(n2)CCCN3c2ccc(F)c(F)c2)ccc1-c1cnc(C)o1` [Example 4, 4-(3,4-difluorophenyl)-N-[3-methoxy-4-(2-methyloxazol-5-yl)phenyl]-6,7-dihydro-5H-[1,2,4]triazolo[1,5-a]pyrimidin-2-amine], the response was half-maximal at 14.3 nM (EC50).

The values above are taken from US10647721B2, “Bicyclic heteroaryl derivatives” (Hoffmann-La Roche Inc., priority 2016, dated 2020).
